The values that follow are results of earlier work, collected in PMC10425256, “Antioxidant and Enzyme Inhibitory Potential of Streptomyces sp. G-18 Grown in Various Media” (International Journal of Microbiology, 2023).

As for `CCCCC/C=C\C/C=C\C[C@@H](C[C@@H]1OC(=O)[C@H]1CCCCCC)OC(=O)[C@H](CC(C)C)NC=O` [lipstatin], in the data set on lipase enzymes, the “inhibition against lipase enzymes” value is listed as “showed inhibition”.

As to `CC(C)=CCC/C(C)=C/Cc1ccc(O)c2nc3cccc(O)c3nc12` [Geranylphenazinediol], the AChE inhibition result in the data set on AChE is on record as “low micromolar range”.

Turning to Cyclipostins, the “inhibition against lipase enzymes” value in the data set with lipase enzymes is given as “showed inhibition”.
